Test: Flow and bulk density of powder blend
Assay type: physicochemical
Procedure: The procedure is described in USP<616<Bulk Density and Tapped Density.
CabOSil with ubidecarenone is co-sieved through a 30-mesh. The ProSolv HD90 and multi-functional particulate system are added. The powder mix is blended at maximum speed for ten minutes. The powder mix is then sieved through a 40-mesh. Polyplasdone Crospovidone is added, and the mixture is blended at maximum speed for two minutes Finally, Mg-stearate is added, and the mixture is blended at maximum speed for two minutes.

- flow (in words): does not flow
Compound: COC1=C(OC)C(=O)C(C/C=C(\C)CC/C=C(\C)CC/C=C(\C)CC/C=C(\C)CC/C=C(\C)CC/C=C(\C)CC/C=C(\C)CC/C=C(\C)CC/C=C(\C)CCC=C(C)C)=C(C)C1=O [Ubidecarenone]

Reference: patent US20080286357A1, “MULTI-FUNCTIONAL PARTICULATE DELIVERY SYSTEM FOR PHARMACOLOGICALLY ACTIVE INGREDIENTS” (Balchem Corporation, priority 2007, published 2008)
